According to patent US10828317B2, “Method of treating bacterial infections” (priority 2016, dated 2020):

Legend:
[1] = system: S. marescens EN0454; test: MIC; type: cell-based, Serratia marescens; details: combination FdUrd+trimethoprim+uridine, Table 8
[2] = system: M. luteus EN0455; test: MIC; type: cell-based, Micrococcus luteus; details: combination FdUrd+trimethoprim+uridine, Table 8
[3] = system: P. mirabilis EN0457; test: MIC; type: cell-based, Proteus mirabilis; details: combination FdUrd+trimethoprim+uridine, Table 8
[4] = system: P. aeruginosa EN0459; test: MIC; type: cell-based, Pseudomonas aeruginosa; details: combination FdUrd+trimethoprim+uridine, Table 8
[5] = system: P. aeruginosa EN0460; test: MIC; type: cell-based, Pseudomonas aeruginosa; details: combination FdUrd+trimethoprim+uridine, Table 8
[6] = system: E. aerogenes EN0461; test: MIC; type: cell-based, Enterobacter aerogenes; details: combination FdUrd+trimethoprim+uridine, Table 8
[7] = system: K. pneumoniae EN0463; test: MIC; type: cell-based, Klebsiella pneumoniae; details: combination FdUrd+trimethoprim+uridine, Table 8
[8] = system: S. epidermidis EN0456; test: MIC; type: cell-based, Staphylococcus epidermidis; details: combination FdUrd+trimethoprim+uridine, Table 8
[9] = system: Citrobacter sp. EN0465; test: MIC; type: cell-based; details: combination FdUrd+trimethoprim+uridine, Table 8
[10] = system: A. pittii or A. nosocomialis EN0180; test: MIC; type: cell-based, Acinetobacter pittii or nosocomialis; details: combination FdUrd+trimethoprim+uridine, Table 8
[11] = system: P. aeruginosa EN0422; test: MIC; type: cell-based, Pseudomonas aeruginosa; details: combination FdUrd+trimethoprim+uridine, Table 8
[12] = system: P. mirabilis ST19 EN0445; test: MIC; type: cell-based, Proteus mirabilis; details: combination FdUrd+trimethoprim+uridine, Table 8
[13] = system: E. coli EN001; test: MIC, WT (EN001 = EN0001, ATCC 25922); type: cell-based, Escherichia coli; details: combination FdUrd+trimethoprim+uridine, Table 19
[14] = system: E. coli EN002; test: MIC, DtoIC; type: cell-based, Escherichia coli; details: combination FdUrd+trimethoprim+uridine, Table 8
[15] = system: E. coli EN003; test: microbe, parasite or virus in culture; type: cell-based, Escherichia coli; details: combination FdUrd+trimethoprim+uridine, Table 8
[16] = system: P. aeruginosa EN004; test: MIC, WT (EN004 = EN0004); type: cell-based, Pseudomonas aeruginosa; details: combination FdUrd+trimethoprim+uridine
[17] = system: K. pneumoniae EN006; test: MIC, WT (EN006 = EN0006, ATCC 13883); type: cell-based, Klebsiella pneumoniae; details: combination FdUrd+trimethoprim+uridine
[18] = system: A. baumannii EN007; test: MIC, WT (EN007 = EN0007); type: cell-based, Acinetobacter baumannii; details: combination FdUrd+trimethoprim+uridine
[19] = system: S. aureus EN008; test: MIC, Gram-positive control; type: cell-based, Staphylococcus aureus; details: combination FdUrd+trimethoprim+uridine, Table 8
[20] = system: P. aeruginosa EN014; test: MIC, WT; type: cell-based, Pseudomonas aeruginosa; details: combination FdUrd+trimethoprim+uridine, Table 8
[21] = system: A. baumannii EN016; test: MIC, WT; type: cell-based, Acinetobacter baumannii; details: combination FdUrd+trimethoprim+uridine, Table 8
[22] = system: E. coli EN0134; test: MIC, AmpC (CMY-4); type: cell-based; details: combination FdUrd+trimethoprim+uridine, Table 19
[23] = system: E. coli EN0136; test: MIC, ESBL (CTX-M-2); type: cell-based; details: combination FdUrd+trimethoprim+uridine, Table 19
[24] = system: E. coli EN0137; test: MIC, ESBL (CTX-M-15); type: cell-based; details: combination FdUrd+trimethoprim+uridine, Table 19
[25] = system: E. coli EN0235; test: microbe, parasite or virus in culture; type: cell-based; details: combination FdUrd+trimethoprim+uridine, Table 19
[26] = system: K. pneumoniae EN0140; test: MIC, AmpC (DHA-1); type: cell-based; details: combination FdUrd+trimethoprim+uridine, Table 19
[27] = system: K. pneumoniae EN0144; test: MIC, MBL (VIM-1); type: cell-based; details: combination FdUrd+trimethoprim+uridine, Table 19
[28] = system: K. pneumoniae EN0244; test: MIC, colistinR; type: cell-based; details: combination FdUrd+trimethoprim+uridine, Table 19
[29] = system: K. pneumoniae EN0245; test: MIC, colistinR; type: cell-based; details: combination FdUrd+trimethoprim+uridine, Table 19
[30] = system: K. pneumoniae EN0249; test: MIC, colistinR; type: cell-based; details: combination FdUrd+trimethoprim+uridine, Table 19
[31] = system: S. flexneri APV00907; test: MIC and antibiogram; type: cell-based; details: combination FdUrd+trimethoprim+uridine, Table 22A
From the text: Inhibition of Heliobacter is important in view of increasing resistance and its association to gastric cancer.

[32] = system: S. sonnei APV00908; test: MIC and antibiogram; type: cell-based; details: combination FdUrd+trimethoprim+uridine, Table 22A

Question: With O=c1[nH]c(=O)n([C@H]2C[C@H](O)[C@@H](CO)O2)cc1F [FdUrd, Fluorodeoxyuridine] as the compound, how does the MIC [1] read?
Answer: >4 µg/mL

Question: What about the MIC [2] of the same compound?
Answer: 2 µg/mL

Question: And the MIC [3]?
Answer: 1 µg/mL

Question: What about the MIC [4] of the same compound?
Answer: >4 µg/mL

Question: What about the MIC [5] of the same compound?
Answer: >4 µg/mL

Question: What about the MIC [6] of the same compound?
Answer: 1 µg/mL

Question: And the MIC [7]?
Answer: 0.25 µg/mL

Question: What about the MIC [8] of the same compound?
Answer: <0.008 µg/mL

Question: What about the MIC [9] of the same compound?
Answer: >4 µg/mL

Question: What about the MIC [10] of the same compound?
Answer: 4 µg/mL

Question: And the MIC [11]?
Answer: >4 µg/mL

Question: What about the MIC [12] of the same compound?
Answer: 0.5 µg/mL

Question: What about the MIC [13] of the same compound?
Answer: 0.25 µg/mL

Question: And the MIC [14]?
Answer: 0.032 µg/mL

Question: What about the MIC [15] of the same compound?
Answer: 0.016 µg/mL

Question: And the MIC ([16]; Table 8)?
Answer: >4 µg/mL

Question: And the MIC ([16]; Table 19)?
Answer: >4 µg/mL

Question: What about the MIC ([17]; Table 8) of the same compound?
Answer: 0.5 µg/mL

Question: What about the MIC ([17]; Table 19) of the same compound?
Answer: 0.5 µg/mL

Question: What about the MIC ([18]; Table 8) of the same compound?
Answer: >4 µg/mL

Question: And the MIC ([18]; Table 19)?
Answer: >4 µg/mL

Question: What about the MIC [19] of the same compound?
Answer: <0.008 µg/mL

Question: What about the MIC [20] of the same compound?
Answer: >4 µg/mL

Question: And the MIC [21]?
Answer: 4 µg/mL

Question: And the MIC [22]?
Answer: >4 µg/mL

Question: What about the MIC [23] of the same compound?
Answer: 1 µg/mL

Question: And the MIC [24]?
Answer: >4 µg/mL

Question: And the MIC [25]?
Answer: 0.06 µg/mL

Question: And the MIC [26]?
Answer: >4 µg/mL

Question: And the MIC [27]?
Answer: >4 µg/mL

Question: And the MIC [28]?
Answer: >4 µg/mL

Question: And the MIC [29]?
Answer: >4 µg/mL

Question: And the MIC [30]?
Answer: >4 µg/mL

Question: And the MIC [31]?
Answer: >4 µg/mL

Question: And the MIC [32]?
Answer: >4 µg/mL
